Data reported in ChEMBL document CHEMBL5543175, “Discovery of Selective Proteolysis-Targeting Chimera Degraders Targeting PTP1B as Long-Term Hypoglycemic Agents” (J Med Chem, 2024).

Assays:
Type in all cases: cell-based
[1] = biological target: T1, Protein cereblon/Tyrosine-protein phosphatase non-receptor type 1 (Homo sapiens, UniProt P18031+Q96SW2); experiment: PROTAC activity at PTP1B/CRBN in insulin treated human HepG2 cells assessed as protein degradation at 500 nM incubated for 48 hrs by Western blot analysis relative to control
Target sequence in this assay (P18031 whole entry, looked up): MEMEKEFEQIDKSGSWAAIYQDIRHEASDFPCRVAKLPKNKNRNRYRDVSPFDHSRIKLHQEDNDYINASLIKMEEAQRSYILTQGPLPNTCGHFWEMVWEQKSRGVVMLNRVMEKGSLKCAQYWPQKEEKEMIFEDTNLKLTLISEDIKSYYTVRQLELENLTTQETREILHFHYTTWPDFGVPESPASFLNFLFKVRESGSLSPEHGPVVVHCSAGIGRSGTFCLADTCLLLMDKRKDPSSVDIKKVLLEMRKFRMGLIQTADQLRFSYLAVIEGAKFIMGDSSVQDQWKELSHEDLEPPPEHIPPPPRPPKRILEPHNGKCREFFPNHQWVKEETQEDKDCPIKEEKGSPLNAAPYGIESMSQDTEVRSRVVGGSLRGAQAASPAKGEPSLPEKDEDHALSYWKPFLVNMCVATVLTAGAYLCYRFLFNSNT
Target sequence in this assay (Q96SW2 whole entry, looked up): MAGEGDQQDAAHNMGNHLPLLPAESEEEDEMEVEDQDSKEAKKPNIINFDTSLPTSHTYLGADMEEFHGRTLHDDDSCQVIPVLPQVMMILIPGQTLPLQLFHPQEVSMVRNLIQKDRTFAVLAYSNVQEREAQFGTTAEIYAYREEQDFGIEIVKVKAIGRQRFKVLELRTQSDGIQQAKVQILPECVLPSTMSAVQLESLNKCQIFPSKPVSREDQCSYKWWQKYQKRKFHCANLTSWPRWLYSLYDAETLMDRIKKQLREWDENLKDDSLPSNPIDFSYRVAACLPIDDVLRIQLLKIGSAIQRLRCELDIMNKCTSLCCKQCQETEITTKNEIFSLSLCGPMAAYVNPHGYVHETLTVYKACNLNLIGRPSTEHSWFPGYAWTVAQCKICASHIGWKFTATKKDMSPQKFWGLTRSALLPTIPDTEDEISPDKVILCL

[2] = biological target: T1, Protein cereblon/Tyrosine-protein phosphatase non-receptor type 1; experiment: PROTAC activity at PTP1B/CRBN in insulin treated human HepG2 cells assessed as protein degradation at 50 nM incubated for 48 hrs by Western blot analysis relative to control
Target sequence in this assay (P18031 whole entry, looked up): as the sequence (P18031 whole entry, looked up) above
Target sequence in this assay (Q96SW2 whole entry, looked up): as the sequence (Q96SW2 whole entry, looked up) above

[3] = biological target: T1, Protein cereblon/Tyrosine-protein phosphatase non-receptor type 1; experiment: PROTAC activity at PTP1B/CRBN in insulin treated human HepG2 cells assessed as protein degradation at 5000 nM incubated for 48 hrs by Western blot analysis relative to control
Target sequence in this assay (P18031 whole entry, looked up): as the sequence (P18031 whole entry, looked up) above
Target sequence in this assay (Q96SW2 whole entry, looked up): as the sequence (Q96SW2 whole entry, looked up) above

[4] = biological target: T1, Protein cereblon/Tyrosine-protein phosphatase non-receptor type 1; experiment: PROTAC activity at PTP1B/CRBN in insulin treated human HepG2 cells assessed as protein degradation at 5 nM incubated for 48 hrs by Western blot analysis relative to control
Target sequence in this assay (P18031 whole entry, looked up): as the sequence (P18031 whole entry, looked up) above
Target sequence in this assay (Q96SW2 whole entry, looked up): as the sequence (Q96SW2 whole entry, looked up) above

[5] = biological target: T1, Protein cereblon/Tyrosine-protein phosphatase non-receptor type 1; experiment: PROTAC activity at PTP1B/CRBN in insulin treated human HepG2 cells assessed as protein degradation at 125 nM incubated for 72 hrs by Western blot analysis relative to control
Target sequence in this assay (P18031 whole entry, looked up): as the sequence (P18031 whole entry, looked up) above
Target sequence in this assay (Q96SW2 whole entry, looked up): as the sequence (Q96SW2 whole entry, looked up) above

[6] = biological target: T1, Protein cereblon/Tyrosine-protein phosphatase non-receptor type 1; experiment: PROTAC activity at PTP1B/CRBN in insulin treated human HepG2 cells assessed as protein degradation at 1250 nM incubated for 72 hrs by Western blot analysis relative to control
Target sequence in this assay (P18031 whole entry, looked up): as the sequence (P18031 whole entry, looked up) above
Target sequence in this assay (Q96SW2 whole entry, looked up): as the sequence (Q96SW2 whole entry, looked up) above

[7] = biological target: T1, Protein cereblon/Tyrosine-protein phosphatase non-receptor type 1; experiment: PROTAC activity at PTP1B/CRBN in insulin treated human HepG2 cells assessed as protein degradation at 5 nM incubated for 72 hrs by Western blot analysis relative to control
[8] = biological target: T1, Protein cereblon/Tyrosine-protein phosphatase non-receptor type 1; experiment: PROTAC activity at PTP1B/CRBN in insulin treated human HepG2 cells assessed as protein degradation at 625 nM incubated for 48 hrs by Western blot analysis relative to control
[9] = biological target: T1, Protein cereblon/Tyrosine-protein phosphatase non-receptor type 1; experiment: PROTAC activity at PTP1B/CRBN in insulin treated human HepG2 cells assessed as protein degradation at 625 nM incubated for 72 hrs by Western blot analysis relative to control
[10] = biological target: T1, Protein cereblon/Tyrosine-protein phosphatase non-receptor type 1; experiment: PROTAC activity at PTP1B/CRBN in insulin treated human HepG2 cells assessed as protein degradation at 25 nM incubated for 72 hrs by Western blot analysis relative to control
[11] = biological target: T1, Protein cereblon/Tyrosine-protein phosphatase non-receptor type 1; experiment: PROTAC activity at PTP1B/CRBN in insulin treated human HepG2 cells assessed as protein degradation at 125 nM incubated for 48 hrs by Western blot analysis relative to control
[12] = biological target: T1, Protein cereblon/Tyrosine-protein phosphatase non-receptor type 1; experiment: PROTAC activity at PTP1B/CRBN in insulin treated human HepG2 cells assessed as protein degradation incubated for 48 hrs by Western blot analysis
[13] = biological target: T1, Protein cereblon/Tyrosine-protein phosphatase non-receptor type 1; experiment: PROTAC activity at PTP1B/CRBN in insulin treated human HepG2 cells assessed as protein degradation at 1250 nM incubated for 48 hrs by Western blot analysis relative to control
[14] = biological target: T1, Protein cereblon/Tyrosine-protein phosphatase non-receptor type 1; experiment: PROTAC activity at PTP1B/CRBN in insulin treated human HepG2 cells assessed as protein degradation at 25 nM incubated for 48 hrs by Western blot analysis relative to control
[15] = biological target: T1, Protein cereblon/Tyrosine-protein phosphatase non-receptor type 1; experiment: PROTAC activity at PTP1B/CRBN in insulin treated human HepG2 cells assessed as protein degradation incubated for 72 hrs by Western blot analysis
[16] = biological target: T1, Protein cereblon/Tyrosine-protein phosphatase non-receptor type 1; experiment: PROTAC activity at PTP1B/CRBN in insulin treated human HepG2 cells assessed as protein degradation at 1 nM incubated for 48 hrs by Western blot analysis relative to control
[17] = biological target: T1, Protein cereblon/Tyrosine-protein phosphatase non-receptor type 1; experiment: PROTAC activity at PTP1B/CRBN in insulin treated human HepG2 cells assessed as protein degradation at 1 nM incubated for 72 hrs by Western blot analysis relative to control

SMILES | Activity [1] | Activity [2] | Activity [3] | Activity [4] | further results
C[C@H]1[C@H](C)CC[C@]2(C(=O)NCCCCCCOCCOCC(=O)Nc3cccc4c3C(=O)N(C3CCC(=O)NC3=O)C4=O)CC[C@]3(C)C(=CC[C@@H]4[C@@]5(C)CC[C@H](O)C(C)(C)[C@@H]5CC[C@]43C)[C@H]12 (stereo partly drawn) | < 5% | 60% | < 5% | 46% | –
CC1(C)CC[C@]2(C(=O)NCCCCCCOCCOCCOCC(=O)Nc3cccc4c3C(=O)N(C3CCC(=O)NC3=O)C4=O)CC[C@]3(C)C(=CC[C@@H]4[C@@]5(C)CC[C@H](O)C(C)(C)[C@@H]5CC[C@]43C)[C@@H]2C1 (stereo partly drawn) | 38% | 56% | < 5% | 84% | –
C[C@H]1[C@H](C)CC[C@]2(C(=O)NCCCCCCNc3cccc4c3C(=O)N(C3CCC(=O)NC3=O)C4=O)CC[C@]3(C)C(=CC[C@@H]4[C@@]5(C)CC[C@H](O)C(C)(C)[C@@H]5CC[C@]43C)[C@H]12 (stereo partly drawn) | 23% | 67% | 14% | 11% | –
CC1(C)CC[C@]2(C(=O)NCCCOCCOCCOCCCNc3cccc4c3C(=O)N(C3CCC(=O)NC3=O)C4=O)CC[C@]3(C)C(=CC[C@@H]4[C@@]5(C)CC[C@H](O)C(C)(C)[C@@H]5CC[C@]43C)[C@@H]2C1 (stereo partly drawn) | 53% | 61% | 31% | 38% | Activity [5]: 41%; Activity [6]: 24%; Activity [7]: 23%; Activity [8]: 51%; Activity [9]: 25%; Activity [10]: 58%; Activity [11]: 36%; Activity [12]: Dose-Dependent Effect; DC50 [12]: 540 nM; Activity [13]: 78%; Activity [14]: < 5%; Activity [15]: Dose-Dependent Effect; DC50 [15]: 3640 nM; Activity [16]: 24%; Activity [17]: < 5%
C[C@H]1[C@H](C)CC[C@]2(C(=O)NCCCCCCOCCOCCOCCOCC(=O)Nc3cccc4c3C(=O)N(C3CCC(=O)NC3=O)C4=O)CC[C@]3(C)C(=CC[C@@H]4[C@@]5(C)CC[C@H](O)C(C)(C)[C@@H]5CC[C@]43C)[C@H]12 (stereo partly drawn) | 33% | 41% | 19% | < 5% | Activity [5]: 32%; Activity [6]: 61%; Activity [7]: 36%; Activity [8]: 68%; Activity [9]: 28%; Activity [10]: 48%; Activity [11]: 61%; Activity [12]: Dose-Dependent Effect; DC50 [12]: 200 nM; Activity [13]: 35%; Activity [14]: 23%; Activity [15]: Dose-Dependent Effect; DC50 [15]: 310 nM; Activity [16]: 37%; Activity [17]: 30%
C[C@H]1[C@H](C)CC[C@]2(C(=O)NCCCOCCCCOCCCNc3cccc4c3C(=O)N(C3CCC(=O)NC3=O)C4=O)CC[C@]3(C)C(=CC[C@@H]4[C@@]5(C)CC[C@H](O)C(C)(C)C5CC[C@]43C)[C@H]12 (stereo partly drawn) | 54% | 65% | 46% | 36% | –
O=C1CCC(N2C(=O)c3cccc(NC(=O)CCCCCCCCCCNC(=O)c4cccc(NC(=O)CSc5nc6ccccc6[nH]5)c4)c3C2=O)C(=O)N1 (stereo not drawn) | 19% | 9% | < 5% | 32% | –
CC1(C)CC[C@]2(C(=O)NCCCCCCOCCOCCOCCCCCC(=O)Nc3cccc4c3C(=O)N(C3CCC(=O)NC3=O)C4=O)CC[C@]3(C)C(=CC[C@@H]4[C@@]5(C)CC[C@H](O)C(C)(C)[C@@H]5CC[C@]43C)[C@@H]2C1 (stereo partly drawn) | < 5% | 16% | 22% | 8% | –
CC1(C)CC[C@]2(C(=O)NCCCCCCNc3cccc4c3C(=O)N(C3CCC(=O)NC3=O)C4=O)CC[C@]3(C)C(=CC[C@@H]4[C@@]5(C)CC[C@H](O)C(C)(C)[C@@H]5CC[C@]43C)[C@@H]2C1 (stereo partly drawn) | 43% | 44% | 29% | 38% | –
O=C1CCC(N2C(=O)c3cccc(NC(=O)COCCOCCOCCCCCCNC(=O)c4cccc(NC(=O)CSc5nc6ccccc6[nH]5)c4)c3C2=O)C(=O)N1 (stereo not drawn) | 13% | 38% | < 5% | 71% | –
O=C1CCC(N2C(=O)c3cccc(NC(=O)CCCCCOCCOCCOCCOCCCCCCNC(=O)c4cccc(NC(=O)CSc5nc6ccccc6[nH]5)c4)c3C2=O)C(=O)N1 (stereo not drawn) | < 5% | 17% | < 5% | 32% | –
O=C1CCC(N2C(=O)c3cccc(NC(=O)COCCOCCOCCOCCCCCCNC(=O)c4cccc(NC(=O)CSc5nc6ccccc6[nH]5)c4)c3C2=O)C(=O)N1 (stereo not drawn) | 44% | 70% | 15% | 26% | –
CC1(C)CC[C@]2(C(=O)NCCCOCCCCOCCCNc3cccc4c3C(=O)N(C3CCC(=O)NC3=O)C4=O)CC[C@]3(C)C(=CC[C@@H]4[C@@]5(C)CC[C@H](O)C(C)(C)[C@@H]5CC[C@]43C)[C@@H]2C1 (stereo partly drawn) | 55% | 75% | 58% | 17% | Activity [5]: 43%; Activity [6]: 53%; Activity [7]: 54%; Activity [8]: 45%; Activity [9]: 47%; Activity [10]: 66%; Activity [11]: 8%; Activity [12]: Dose-Dependent Effect; DC50 [12]: 770 nM; Activity [13]: 62%; Activity [14]: < 5%; Activity [15]: Dose-Dependent Effect; DC50 [15]: 200 nM; Activity [16]: 33%; Activity [17]: 5%
O=C1CCC(N2C(=O)c3cccc(NC(=O)CCCCCOCCOCCOCCCCCCNC(=O)c4cccc(NC(=O)CSc5nc6ccccc6[nH]5)c4)c3C2=O)C(=O)N1 (stereo not drawn) | < 5% | 32% | 30% | 8% | –
CC1(C)CC[C@]2(C(=O)NCCCCCCOCCOCCOCCOCC(=O)Nc3cccc4c3C(=O)N(C3CCC(=O)NC3=O)C4=O)CC[C@]3(C)C(=CC[C@@H]4[C@@]5(C)CC[C@H](O)C(C)(C)[C@@H]5CC[C@]43C)[C@@H]2C1 (stereo partly drawn) | 6% | 51% | 32% | 24% | –
CC1(C)CC[C@]2(C(=O)NCCCCCCOCCOCCCCCC(=O)Nc3cccc4c3C(=O)N(C3CCC(=O)NC3=O)C4=O)CC[C@]3(C)C(=CC[C@@H]4[C@@]5(C)CC[C@H](O)C(C)(C)[C@@H]5CC[C@]43C)[C@@H]2C1 (stereo partly drawn) | 36% | 33% | < 5% | 45% | –
O=C1CCC(N2C(=O)c3cccc(NC(=O)COCCOCCCCCCNC(=O)c4cccc(NC(=O)CSc5nc6ccccc6[nH]5)c4)c3C2=O)C(=O)N1 (stereo not drawn) | 43% | 69% | < 5% | 24% | –
CC1(C)CC[C@]2(C(=O)NCCCCCCOCCOCC(=O)Nc3cccc4c3C(=O)N(C3CCC(=O)NC3=O)C4=O)CC[C@]3(C)C(=CC[C@@H]4[C@@]5(C)CC[C@H](O)C(C)(C)[C@@H]5CC[C@]43C)[C@@H]2C1 (stereo partly drawn) | 26% | 51% | < 5% | 57% | –
O=C1CCC(N2C(=O)c3cccc(NC(=O)CCCCCOCCOCCCCCCNC(=O)c4cccc(NC(=O)CSc5nc6ccccc6[nH]5)c4)c3C2=O)C(=O)N1 (stereo not drawn) | 13% | 17% | 10% | < 5% | –
C[C@H]1[C@H](C)CC[C@]2(C(=O)NCCCCCCOCCOCCCCCC(=O)Nc3cccc4c3C(=O)N(C3CCC(=O)NC3=O)C4=O)CC[C@]3(C)C(=CC[C@@H]4[C@@]5(C)CC[C@H](O)C(C)(C)[C@@H]5CC[C@]43C)[C@H]12 (stereo partly drawn) | 29% | 47% | 5% | 18% | –
C[C@H]1[C@H](C)CC[C@]2(C(=O)NCCCCCCOCCOCCOCCOCCCCCC(=O)Nc3cccc4c3C(=O)N(C3CCC(=O)NC3=O)C4=O)CC[C@]3(C)C(=CC[C@@H]4[C@@]5(C)CC[C@H](O)C(C)(C)[C@@H]5CC[C@]43C)[C@H]12 (stereo partly drawn) | 12% | < 5% | 42% | < 5% | –
C[C@H]1[C@H](C)CC[C@]2(C(=O)NCCCCCCOCCOCCOCCCCCC(=O)Nc3cccc4c3C(=O)N(C3CCC(=O)NC3=O)C4=O)CC[C@]3(C)C(=CC[C@@H]4[C@@]5(C)CC[C@H](O)C(C)(C)[C@@H]5CC[C@]43C)[C@H]12 (stereo partly drawn) | 6% | < 5% | 17% | 16% | –
